From patent publication US8197859B2, “Lipolysis stimulator” (Kao Corporation, priority 2006, dated 2012) come the findings set out here.

What all share (format): cell-based, rat (male Wistar)
For test [1], the system named is free adipocytes from abdominal subcutaneous adipose tissue. Kind of test: Test Example 2: lipolysis-stimulating activity (free glycerol) in free adipocytes with norepinephrine; Huang Hua Cai extract and theophylline. Particulars: Rattus norvegicus, Adipocyte, theophylline singly, 90 nM norepinephrine, control = 100%.
Experimental: (§1) Specifically, free adipocytes were recovered from the abdominal subcutaneous adipose tissue of each of one to three male Wistar rats (each having a body weight of 170 to 230 g) by use of a collagenase solution.
(§2) The free adipocytes were incubated at 37° C. for 2 hours in a Hanks buffer solution containing bovine serum albumin and 90 nM norepinephrine (reaction mixture) to which each test substance had been added. The resultant free glycerol was assayed through an enzymatic method (Free Glycerol Reagent, product of Sigma-Aldrich).
(§3) As a control, adipocytes were incubated in the same buffer containing only norepinephrine but no test substance.
(§4) Lipolysis-stimulating activity was calculated by the following equation, with 100% being a control value. Lipolysis-stimulating activity(%)=100×(free glycerol in each group)/(free glycerol in control group)
The following substances were tested: the Huang Hua Cai extract (singly), theophylline (singly), and two different mixtures of Huang Hua Cai extract and theophylline (hereinafter referred to as “Huang Hua Cai-theophylline mixture”), i.e., Huang Hua Cai-theophylline mixture 1 (Huang Hua Cai extract+1 μg/mL theophylline), and a Huang Hua Cai-theophylline mixture 2 (Huang Hua Cai extract+3 μg/mL theophylline). […]
Test [2] has the same test system. As to the kind of experiment: Test Example 3: lipolysis-stimulating activity (free glycerol) in free adipocytes with norepinephrine; Huang Hua Cai extract and aminophylline. Particulars: Rattus norvegicus, Adipocyte, aminophylline singly, 90 nM norepinephrine, control = 100%.
Experimental: as §1, §2, §3, §4
The procedure of Test Example 1 was repeated, except that caffeine was changed to aminophylline. The following substances were tested: and two different mixtures of Huang Hua Cai extract and aminophylline (hereinafter referred to as “Huang Hua Cai-aminophylline mixture”), i.e., Huang Hua Cai-aminophylline mixture 1 (Huang Hua Cai extract+1 μg/mL aminophylline), and a Huang Hua Cai-aminophylline mixture 2 (Huang Hua Cai extract+3 μg/mL aminophylline).
Aminophylline employed in the test was a commercial product (Sigma-Aldrich). […]
Test [3] has the same test system. Kind of test: Test Example 1: lipolysis-stimulating activity (free glycerol) in free adipocytes with norepinephrine; Huang Hua Cai extract and caffeine. As to conditions: Rattus norvegicus, Adipocyte, caffeine singly, 90 nM norepinephrine, 37° C., 2 hours, control = 100%.
Experimental: The Rodbell's method (Rodbell, M., J. Biol. Chem., 239, 375 (1964)) was employed. Specifically, free adipocytes were recovered from the abdominal subcutaneous adipose tissue of each of one to three male Wistar rats (each having a body weight of 170 to 230 g) by use of a collagenase solution.
The following substances were tested: the Huang Hua Cai extract (singly), caffeine (singly), and two different mixtures of Huang Hua Cai extract and caffeine (hereinafter referred to as “Huang Hua Cai-caffeine mixture”), i.e., Huang Hua Cai-caffeine mixture 1 (Huang Hua Cai extract+10 μg/mL caffeine), and Huang Hua Cai-caffeine mixture 2 (Huang Hua Cai extract+30 μg/mL caffeine).
as §2
To the reaction mixture, added the Huang Hua Cai extract at the final concentration of 0, 3, 10, 30 and 100 μg/mL, respectively, and caffeine at the final concentration of 0, 10 and 30 μg/mL, respectively. […]
Lipolysis-stimulating activity was calculated by the following equation, with 100% being a control value. […]

As to `Cn1c(=O)c2[nH]cnc2n(C)c1=O` [Theophylline, theophylline], the activity at 1 µg/mL in test [1] (1 μg/mL) turned out to be 142%. Besides, the activity at 3 µg/mL in test [1] (3 μg/mL) came out at 188%.
`Cn1c(=O)c2[nH]cnc2n(C)c1=O` [Aminophylline, aminophylline]: the activity at 1 µg/mL in test [2] (1 μg/mL) was 140%. For the same molecule, the activity at 3 µg/mL in test [2] (3 μg/mL) was found to be 197%.
`Cn1c(=O)c2c(ncn2C)n(C)c1=O` [Caffeine, caffeine]: the activity at 10 µg/mL in test [3] (10 μg/mL) was 157%. Also, in test [3] (30 μg/mL), the activity at 30 µg/mL stood at 207%.
